Measured values published in PubChem BioAssay (NCI).
Several values for one entry are separate records, joined by “and”; a condition that tells them apart may be missing. Identical values can stand only once.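 Values below derive from 48-hour exposures of cells grown in 96-well plates, with endpoints linearly interpolated between the two concentrations bracketing the appropriate inhibition level. GI50 is the concentration that inhibits growth by half. The concentration for full growth arrest is given as TGI.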

Tests used:
Assay in all cases: NCI tumour cell line growth inhibition, 48 h
RXF 393 renal = tested on: RXF 393 renal
COLO 205 colon = tested on: COLO 205 colon
OVCAR-3 ovarian = tested on: OVCAR-3 ovarian
SK-MEL-28 melanoma = tested on: SK-MEL-28 melanoma
NCI-H522 lung = tested on: NCI-H522 lung
SN12C renal = tested on: SN12C renal
MCF7 breast = tested on: MCF7 breast
NCI-H23 lung = tested on: NCI-H23 lung
HCT-15 colon = tested on: HCT-15 colon
HCT-116 colon = tested on: HCT-116 colon

Compound	GI50 (RXF 393 renal)	TGI (RXF 393 renal) [µM]	GI50 (COLO 205 colon)	TGI (COLO 205 colon)	GI50 (OVCAR-3 ovarian)	TGI (OVCAR-3 ovarian)	GI50 (SK-MEL-28 melanoma)	TGI (SK-MEL-28 melanoma)	GI50 (NCI-H522 lung)	TGI (NCI-H522 lung)	GI50 (SN12C renal)	TGI (SN12C renal)	GI50 (MCF7 breast)	TGI (MCF7 breast)	GI50 (NCI-H23 lung)	TGI (NCI-H23 lung)	GI50 (HCT-15 colon)	TGI (HCT-15 colon) [µM]	GI50 (HCT-116 colon)	TGI (HCT-116 colon) [µM]
CC(=O)Oc1ccc(C2=Cc3ccc(OC(C)=O)cc3OC2C)cc1 (stereo not drawn)	4.11 µM	26.4	27900 nM	> 100 µM	3330 nM	15.3 µM	10.3 µM	43.4 µM	3580 nM	23.1 µM	7.08 µM	> 100 µM	6280 nM	52.3 µM	5.3 µM	> 100 µM	5070 nM	26.1	4870 nM	17.9
COC12C(COC(=O)NCCO)C3=C(C(=O)C(C)=C(N)C3=O)N1CC1NC12 (stereo not drawn)	141 µM	> 264		85.8 µM	56200 nM	141 µM		> 264 µM	36100 nM	33.5 µM and 99.6 µM	34.4 µM	> 264 µM		118 µM	10.3 µM	22.7 µM and 51.3 µM		> 264	35100 nM	114
COc1cc2nnc3c4cccnc4[nH]c3c2cc1OC	1.17 µM and 0.707 µM		6920 nM and 2960 nM	16 µM and 11.6 µM	1370 nM and 1150 nM	22.6 µM and 5.5 µM	18.8 µM and 4.49 µM	50 µM and > 100 µM	1650 nM and 2050 nM	16.6 µM and 7.6 µM	1.9 µM and 2.27 µM	19.2 µM and 8.47 µM	836 nM and 340 nM	10.9 µM and 2.82 µM	11.1 µM and 2.34 µM	40.5 µM and 6.71 µM	2300 nM and 1430 nM		292 nM and 127 nM	
COc1ccc(-c2[nH]c3ccc(OC)cc3c2C=C(C#N)C#N)cc1	5.48 µM	> 100	288 nM	1.02 µM	364 nM	1.9 µM	1.66 µM	> 100 µM	> 100000 nM	> 100 µM	15.9 µM	> 100 µM	382 nM	> 100 µM	1.25 µM	> 100 µM	766 nM	> 100	477 nM	> 100
Fc1ccc(NC(c2ccc(F)cc2)C2CCN(CCCCc3ccccc3)CC2)cc1 (stereo not drawn)	1.72 µM	3.17	1600 nM	3.2 µM	1570 nM	2.91 µM	1.76 µM	3.28 µM	1650 nM	3.47 µM	1.77 µM	3.37 µM	1640 nM	3.24 µM	1.78 µM	3.86 µM	1450 nM	2.89	1410 nM	2.75
O=C(O)CN(CCN(CC(=O)O)CC(=O)O)CC(=O)O.[Mn+2]	> 100 µM	> 100	> 100000 nM	> 100 µM	> 100000 nM	> 100 µM	> 100 µM	> 100 µM	> 100000 nM	> 100 µM	> 100 µM	> 100 µM	> 100000 nM	> 100 µM	> 100 µM	> 100 µM	> 100000 nM	> 100	> 100000 nM	> 100
